# From patent US9326993B2, “Treatment of pulmonary and pleural fibrosis using HSP27 inhibitors” (ONCOGENEX TECHNOLOGIES INC., priority 2011, dated 2016)
# Residues, ends and D or L forms follow the SMILES beside them. *: point of attachment. e = 2'-O-(2-methoxyethyl) (MOE); Cbz = O=C(OCc1ccccc1)*; d = 2'-deoxy (DNA)
# Tests used:
# [1] = test system: human mesothelial Met-5A cells; test: rTGF-β1-induced EMT in Met-5A cells (western blot, RT-PCR); assay type: cell-based; conditions: HSP27 siRNA-depleted cells plus proteasome inhibitor
# Procedure: Mesothelial rat established cell line 4/4 RM4 cells (American Type Culture Collection—ATCC—Rockville, Md.) were seeded in Ham's F10 (Lonza), with FBS 15%. Mesothelial human established cell line MET-5A (ATCC) were seeded in Medium 199 (lonza), 1% L-glutamine, 1% penicillin-streptomycin with 10% FBS. Epithelial human cell line A549 cells (ATCC) and were seeded in Ham's F10 (lonza) with 10% FBS.
# For EMT induction and analysis, all the different cells were exposed to their respective medium containing 10 ng/ml recombinant (r)TGF-β1 (R&D system, Lille, France) for 6, 12, 24, or 48 hours.
# HSP27 siRNA were purchased from applied bios system (Courtaboeuf, France). The sense and antisense sequence were respectively: 5′-GUUCAAAGCAACCACCUGUtt-3 (SEQ ID No: 4)′ and 5′-ACAGGUGGUUGCUUUGAACtt-3′. (SEQ ID No: 5). They were used at a concentration of 50 nM. SiRNA were transfected using INTERFERin (polyplus, Illkirch, France) following the manufacturer recommendations. 5-6 hours after transfection medium were changed and cells were treated or not with 10 ng/ml TGF-β1 for 12, 24 or 48 hours. Seq ID No. 3 was used as a random control oligonucleotide.
# (§1) Protein extraction was made using triton X 100 during 30 min at 4° C., vortexing every 10 min. Protein dosage is made with the modified lowry kit (Biorad, Marne-la-Coquette, France). Equal amounts of protein (30-50 μg) were electrophoresed through 8 to 12% SDS polyacrylamide gels. The separate protein bands were transferred onto a PVDF membrane. The non-specific sites were saturated with a solution of PBS-tween 0.1%, nonfat milk 8%. Membranes were incubated with primary Abs over night at 4° C. Secondary Abs IgG linked to HRP (HorseRadish Peroxidase, Jackson ImmunoResearch Laboratories, PA, USA) were used at a concentration of 1/5000. Enhanced ChemiLuminescent substrat (ECL, santa cruz biotechnology, CA, USA) was used to detect the protein of interest. […]
# Total RNA was extracted using TRIzol (Invitrogen, Cergy Pontoise, France) from MET-5A and A549 cells treated or not with rTGF-β1 12 or 24 hours and transfected or not by HSP27 siRNA or plasmid encoding HSP27. […] Quantitative RT-PCR was performed on the cDNA using the SYBR green master mix (promega, Charbonnieres, France). […]
# [2] = test system: HSP27; conditions: cited from earlier work
# [3] = test system: human mesothelial Met-5A cells; test: Induction of HSP27 overexpression in Met-5A cells; assay type: cell-based
# From the text: To study the involvement of HSP27 in the EMT process, we induced the overexpression of HSP27 in the human mesothelial Met-5A cells by three different methods: heat shock, staurosporine treatment, and transfection with a plasmid encoding HSP27. […] (Brunet Simioni et al., Oncogene 2009; 28:3332-44) A more specific overexpression was obtained by HSP27 cDNA transfection. […] Conversely, siRNA-meditated depletion of HSP27 inhibits rTGF-β1 induced α-SMA in human […] Met-5A cells and epithelial A549 cells. This decrease in α-SMA content induced by HSP27 depletion seems to be, at least in part, the result of its proteasomal degradation because in the presence of an inhibitor of the proteasome, such as MG132, α-SMA levels were restored
# [4] = test system: AdTGF-β1 induced pleural and subpleural fibrosis model in rats; test: AdTGF-β1 induced pleural and subpleural fibrosis model; assay type: in vivo, rat; conditions: for reduction in the lungs volume compared to AdDL administered animals: RCL2 volume, 10 min at 20 cm H20
# From the text: For experiments on pleural fibrosis we used AdTGF-β1223/225, an adenovirus construct with a mutant TGF-β1 translated into spontaneously bioactive TGF-β1 (AdTGFβ1) and control vectors (AdDL) with no insert in the deleted E1 region. The construction of adenoviral vectors is described in detail elsewhere (DeCologne, 2007, supra; Bett et al. Proc Natl Acad Sci USA 1994; 91:8802-6; Sime et al., J Clin Invest 1997; 100:768-76)
# Female Sprague-Dawley rats (Charles River Laboratories) weighing 200-225 g were housed in special pathogen-free conditions. Rodent laboratory food and water were provided ad libitum. The animals were treated in accordance to the guidelines of the Ministère de la Recherche et de laTechnologie (Paris, France). All experiments were approved by the Comitéd'Ethique de l'Universite´ de Bourgogne (Bourgogne, France). All animal procedures were performed with inhalation anesthesia with isoflurane (TEM, Lormont, France). Adenovector administrations were performed by intrapleural injection in 800 μl of NaCl0.9% containing a total of 1.3×10^9 PFU AdTGF-β1, AdDL or AdLacZ. The intrapleural injection protocol was described in details elsewhere (DeCologne, 2007, supra)).
# 12 mg/kg of control ASO and OGX-427 were daily administrated by intrapleural injection during 5 days after adenoviral administration. Rats were euthanized by abdominal aortic bleeding and lungs were harvested and processed following what was previously described in Decologne et al (DeCologne, 2007, supra)).
# Immunohistochemitry: Inflated lungs were transversally cut and paraffin embedded. 5 μm section were performed and stain with primary antibodies (Ab), Mouse monoclonal anti-α-SMA (Sigma, St Quentin Fallavier, France, 1/200), rabbit polyclonal anti-HSP27 (EnzoLife Science, Villeurbanne, France, 1/200) and rabbit polyclonal cleaved caspase 3 (cell signaling, Saint Quentin, France, 1/100). Secondary Abs used were respectively, a goat anti-mouse IgG biotin conjugated and a goat anti-rabbit IgG biotin conjugated. After peroxidase inhibition (PBS plus H2O2, 20 min), lung section were incubated over night at 4° C. with primary ab. Tissue section were after PBS 1× (Phosphate Buffer Saline) wash incubated with the secondary ab (1/500) 45 min. The streptavidin-HRP complex (Jackson ImmunoResearch Laboratories, PA, USA, 1/500) was used 45 min at room temperature. 3-Amino-9-ethylcarbazole/hydrogen peroxide was used as chromagen substrate. Slides were counterstained with hematoxylin.
# Total human TGF-β1 was determined from pleural lavage fluid (PLF) using ELISA (R&D Systems, Lille, France), performed according to the recommendations of the manufacturer. The sensitivity of this assay was 7 pg·mL-1.
# To assess the role of HSP27 inhibition in the process of fibrogenesis in vivo, we administered OGX427 or its control ASO in the pleural cavity in our AdTGF-β1 induced pleural and subpleural fibrosis model in rats. The concentrations of ASO control and OGX-427 used were those previously described in studies of bladder cancer where the oligonucleotides were administered intra-vesically. (Matsui et al. Mol Cancer Ther 2009; 8:2402-11)
# After AdTGF-β1 or AdDL intrapleural administration, rats were daily treated with the ASO control or OGX427 during […] by intra pleural injection. We first confirmed by an ELISA technique that the content on TGF-β1 after AdTGF-β1 intrapleural administration was similar in the pleural lavage fluid (PLF) from all rats, those treated with OGX427 and those treated with a control ASO (FIG. 4A). […] (FIG. 4B)
# To determine lung activity, lung volumes were assessed by measuring the volume of RCL2 (fixation solution) that drained into the lungs after 10 min at a constant pressure of 20 cm H20. Compared to AdDL administered animals, AdTGF-β1 administration in ASO control rats induced a reduction in the lungs volume of 55%. […] This effect for the HSP27 inhibitor was only observed in the TGF-β1-exposed animals. […]
# [5] = test system: Mesothelial rat primary cells; test: Spontaneous EMT of primary mesothelial cells over culture passages; assay type: cell-based
# Procedure: For primary cell harvesting, 8 ml of HBSS (Lonza, Paris, France) were injected in the pleural cavity through the diaphragm then removed and followed by a 10 ml trypsin 5%, EDTA 0.4% administration for 30 min. This lavage was removed and placed in 30 ml of DMEM (Dulbecco's Modified Eagle Medium, Lonza) with 15% FBS (Fetal Bovine Serum, Lonza). After centrifugation (1300 rpm, 5 minutes), the cell pellet was re-suspended into 5 ml DMEM, FBS 15% and placed at 37° C., 5% CO2.
# Mesothelial rat primary cells were grown in Dulbecco's Modified Eagle's Medium (DMEM) 1% L-glutamine, 1% penicillin-streptomycin with 15% Fetal Bovine Serum (FBS. Lonza, Paris, France). Cells were assessed before culture and from passage 1 to 4.
# as §1
compound,measurement,setting,value
CC(C)C[C@@H](C=O)NC(=O)[C@H](CC(C)C)NC(=O)[C@H](CC(C)C)NC(=O)OCc1ccccc1 [MG132] (Cbz-Leu-Leu-Leu-aldehyde),α-SMA levels after HSP27 depletion,[1],restored
CC(=O)O[C@H]1C(=O)[C@@]2(C)[C@H]([C@H](OC(=O)c3ccccc3)[C@]3(O)C[C@H](OC(=O)[C@H](O)[C@@H](NC(=O)c4ccccc4)c4ccccc4)C(C)=C1C3(C)C)[C@]1(OC(C)=O)CO[C@@H]1C[C@@H]2O [Paclitaxel],HSP27 expression/levels,[2],inhibitor of hsp27 expression
CN[C@@H]1C[C@H]2O[C@@](C)([C@@H]1OC)n1c3ccccc3c3c4c(c5c6ccccc6n2c5c31)C(=O)NC4 [staurosporine],HSP27 induction,[3],efficient inducers of HSP27
same,α-SMA expression/content,[3]; after HSP27 overexpression,increase
"ASO control: control oligonucleotide having the sequence CCTTCCCTGAAGGTTCCTCC, also known as ISIS 141923 (listed as DNA, chemistry not given here)",reduction in the lungs volume compared to AdDL administered animals,[4]; AdTGF-β1 rats,55%
"OGX-427: 4-12-4 2′-MOE gapmer antisense oligonucleotide with phosphorothiolated linkages targeting HSP27, made by OncoGenex (Seq. ID No. 2) (antisense GGGACGCGGCGCTCGGTCAT; sugars from the 5' end e4 d12 e4, all C 5-methyl, all phosphorothioate, T or U not given here; listed as Homo sapiens)",increased expression of HSP27 with cell passages,[5]; vs ASO control,blocked
same,increased expression of α-SMA with cell passages,[5]; vs ASO control,blocked
same,cell shape (mesothelial phenotype),[5]; vs control ASO,kept their mesothelial phenotypic shape
same,"lung volumes in AdDL-administered animals, ASO control vs OGX 427",[4]; AdDL rats (no TGF-β1),no difference
same,mesothelial cell migration within the subpleural parenchyma,[4]; AdTGF-β1 + AdLacZ rats,no mesothelial cell migration
same,morphology of the mesothelial cells,[4]; AdTGF-β1 + AdLacZ rats,did not change
same,pleural fibrosis (histological evaluation),[4]; AdTGF-β1 rats,minor pleural fibrosis
same,HSP27 expression in lungs,"[4]; AdTGF-β1 rats, histology",very significant decrease
same,α-SMA expression in lungs,"[4]; AdTGF-β1 rats, histology",very significant decrease
same,pleural collagen quantified from microscopic images,"[4]; AdTGF-β1 rats, vs control antisense",substantial reduction
same,reduction in the lungs volume compared to AdDL administered animals,[4]; AdTGF-β1 rats,35%
same,HSP27 expression in PLF (western blot),"[4]; AdTGF-β1 rats, intra-pleural administration",strongly blocked
same,TGF-β1 content in pleural lavage fluid (ELISA),"[4]; after AdTGF-β1 intrapleural, 12 mg/kg daily intrapleural, vs control ASO",similar
same,amount of fibrosis in the pulmonary parenchyma,[4]; collagen in parenchymal subpleural areas,reduces the amount of fibrosis
interferon-γ: cytokine shown to downregulate expression of HSP27,HSP27 expression/levels,[2],downregulate expression of HSP27
